The structures appear in SMILES notation. Active and inactive are the calls of the source. The rule behind the calls is not given here. A value given as a limit tells only on which side of the number the result lay.

For data set [1], the system named is PBMC. In words: Cytotoxicity against human PBMC cells assessed as cell viability by MTT assay. Format: cell-based.
Data set [2] in a line: Induction of cell differentiation in human HL60 cells by NBT/MTT assay. It counts as functional, cell-based. The following applies: HL-60.
The subject of data set [3] is HL-60. Put plainly: Induction of cell differentiation in human HL60 cells assessed as increase in differentiation index at 10 uM measured after 3 days by NBT/MTT assay. Format: functional, cell-based.
In data set [4] the test system is HL-60. Put plainly: Induction of cell differentiation in human HL60 cells assessed as increase in differentiation index at 10 uM measured after 5 days by NBT/MTT assay. It counts as functional, cell-based.
Data set [5] deals with HL-60. Put plainly: Induction of cell differentiation in human HL60 cells at 0.1 to 10 uM measured after 3 days by NBT/MTT assay. It counts as functional, cell-based.
Data set [6] has as its system HL-60. Put plainly: Induction of cell differentiation in human HL60 assessed as reduction in cell number after 3 days at 10 uM by leishmans staining based microscopic analysis. Format: functional.
Data set [7] relates to HL-60. Put plainly: Induction of cell differentiation in human HL60 cells assessed as irregularity of nuclear and cytoplasmic shape after 3 days at 10 uM by leishmans staining based microscopic analysis. Format: functional.
The subject of data set [8] is HL-60. In words: Induction of cell differentiation in human HL60 cells assessed as condensation of nuclear chromatin after 3 days at 10 uM by leishmans staining based microscopic analysis. It counts as functional.
For data set [9], the system named is HL-60. Put plainly: Induction of cell differentiation in human HL60 cells at 0.1 to 10 uM measured after 5 days by NBT/MTT assay. Format: functional, cell-based.
The subject of data set [10] is HL-60. Put plainly: Induction of cell differentiation in human HL60 at 10 uM after 3 days by leishmans staining based microscopic analysis. Format: functional.
For data set [11], the system named is HL-60. In words: Induction of cell differentiation in human HL60 cells at 10 uM co-administered with MDA measured after 3 days by NBT/MTT assay. Format: functional, cell-based.
The test system of data set [12] is HL-60. Put plainly: Induction of cell differentiation in human HL60 cells at 10 uM co-administered with DAF measured after 3 days by NBT/MTT assay. Format: functional, cell-based.

With `NCCCNCCCCNCCCNC(=O)Nc1cc(N2CCCCC2)nc(N)[n+]1[O-].O=C(O)C(F)(F)F.O=C(O)C(F)(F)F.O=C(O)C(F)(F)F`, the Activity result in data set [1] is “Toxic”. Moreover, the IC50 in data set [2] stood at 3.02 µM. Also, the result in [3] and in data set [4] was Active.

With `NCCCCCCNC(=O)Nc1cc(N2CCCCC2)nc(N)[n+]1[O-].O=C(O)C(F)(F)F`, in data set [1], the Activity result was “Toxic”. Further, the result in [5], in data set [6], in [7] and in data set [8] was Active. This compound registered a 50% inhibitory concentration (IC50) in data set [2] of 3.3 µM. In addition, the result in data set [9] was inactive.

`Nc1nc(N2CCCCC2)cc(NC(=O)NC(c2ccccc2)c2ccccc2)[n+]1[O-]`: the Activity result in data set [1] was “Toxic”. This compound also came in with an IC50 in [2] of 3.05 µM. In addition, the result in data set [3] and in data set [4] was Active.

Consider `COc1ccc(C(NC(=O)Nc2cc(N3CCCCC3)nc(N)[n+]2[O-])c2ccc(OC)cc2)cc1`, for which the IC50 in data set [2] is greater than 10 µM.

In [2], `NCCCCNC(=O)Nc1cc(N2CCCCC2)nc(N)[n+]1[O-]` returned a half-maximal inhibitory concentration (IC50) greater than 10 µM.

On to `Nc1nc(N2CCCCC2)cc(NC(=O)NCc2ccccc2)[n+]1[O-]`, for which the IC50 in data set [2] was greater than 10 µM.

In the case of `Nc1ccc2c(c1)Cc1cc(N)ccc1-2`, the result in [3] was inactive.

In the case of `CCCCCCCCCCCCCC(=O)O[C@@H]1[C@@H](C)[C@@]2(O)[C@@H](C=C(CO)C[C@]3(O)C(=O)C(C)=C[C@@H]23)[C@@H]2C(C)(C)[C@]12OC(C)=O`, the outcome in data set [10] was inactive.

On to `N#CCCNC(=O)Nc1cc(N2CCCCC2)nc(N)[n+]1[O-]`, for which, in data set [2], the IC50 is greater than 10 µM.

As for `Nc1ccc(Cc2ccc(N)cc2)cc1`, the result in data set [3] and in data set [10] was inactive.

`Nc1ccc2c(c1)Cc1cc(NC(=O)Nc3cc(N4CCCCC4)nc(N)[n+]3[O-])ccc1-2`: the Activity result in data set [1] is recorded as “Toxic”. The same compound gave an IC50 in data set [2] of 3.04 µM. For the same compound, the result in data set [6], in data set [3], in data set [7], in [8] and in data set [4] was Active.

`Nc1cc(N2CCCCC2)nc(N)[n+]1[O-]` [MINOXIDIL]: the result in [11], in [12] and in data set [10] was inactive. The same compound registered an IC50 in [2] greater than 10 µM.

Take `Nc1ccc(Cc2ccc(NC(=O)Nc3cc(N4CCCCC4)nc(N)[n+]3[O-])cc2)cc1`: the Activity result in [1] is given as “Toxic”. This compound showed an IC50 in data set [2] of 3.02 µM. In addition, the result in data set [6], in [3], in data set [7], in data set [8] and in data set [4] was Active.

Turning to `CC1=C(/C=C/C(C)=C/C=C/C(C)=C/C(=O)O)C(C)(C)CCC1`, the result in [5] and in data set [9] was Active.

In data set [2], `CCCCNC(=O)Nc1cc(N2CCCCC2)nc(N)[n+]1[O-]` had an IC50 greater than 10 µM.

These data come from ChEMBL document CHEMBL3769400, “Synthesis of minoxidil conjugates and their evaluation as HL-60 differentiation agents” (Bioorg Med Chem Lett, 2016).
